Results from ChEMBL document CHEMBL1148010, “Synthesis and biological evaluation of 2beta,3alpha-(substituted phenyl)nortropanes as potential norepinephrine transporter imaging agents” (Bioorg Med Chem Lett, 2007).
pKi: −log10 of the molar value.

Legend:
[1] = target: Sodium-dependent serotonin transporter (Homo sapiens, UniProt P31645); experiment: Displacement of [3H]citalopram from human SERT expressed in HEK293 cells; format: cell-based
[2] = target: Sodium-dependent dopamine transporter (Homo sapiens, UniProt Q01959); experiment: Displacement of [125I]RTI55 from human DAT expressed in HEK293 cells; format: cell-based
Sodium-dependent dopamine transporter, sequence (Q01959 whole entry): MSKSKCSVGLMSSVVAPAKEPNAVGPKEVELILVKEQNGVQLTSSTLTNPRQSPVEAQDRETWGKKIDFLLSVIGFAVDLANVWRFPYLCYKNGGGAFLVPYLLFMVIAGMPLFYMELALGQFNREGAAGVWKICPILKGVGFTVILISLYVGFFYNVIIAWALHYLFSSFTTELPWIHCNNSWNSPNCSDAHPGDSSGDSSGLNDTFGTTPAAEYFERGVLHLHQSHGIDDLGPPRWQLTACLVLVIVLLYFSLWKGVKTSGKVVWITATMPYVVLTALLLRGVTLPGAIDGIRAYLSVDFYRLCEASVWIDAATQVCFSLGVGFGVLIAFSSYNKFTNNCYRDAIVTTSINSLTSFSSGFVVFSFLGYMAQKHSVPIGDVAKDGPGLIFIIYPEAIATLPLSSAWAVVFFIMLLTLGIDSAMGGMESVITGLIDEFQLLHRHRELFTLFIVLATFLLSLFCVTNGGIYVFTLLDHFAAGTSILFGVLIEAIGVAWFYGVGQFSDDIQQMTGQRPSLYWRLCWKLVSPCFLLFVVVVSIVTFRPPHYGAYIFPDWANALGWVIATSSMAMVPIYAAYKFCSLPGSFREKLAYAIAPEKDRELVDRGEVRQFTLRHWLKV

[3] = target: Sodium-dependent noradrenaline transporter (Homo sapiens, UniProt P23975); experiment: Displacement of [3H]nisoxetine from human NET expressed in HEK293 cells; format: cell-based
Sodium-dependent noradrenaline transporter, sequence (P23975 whole entry): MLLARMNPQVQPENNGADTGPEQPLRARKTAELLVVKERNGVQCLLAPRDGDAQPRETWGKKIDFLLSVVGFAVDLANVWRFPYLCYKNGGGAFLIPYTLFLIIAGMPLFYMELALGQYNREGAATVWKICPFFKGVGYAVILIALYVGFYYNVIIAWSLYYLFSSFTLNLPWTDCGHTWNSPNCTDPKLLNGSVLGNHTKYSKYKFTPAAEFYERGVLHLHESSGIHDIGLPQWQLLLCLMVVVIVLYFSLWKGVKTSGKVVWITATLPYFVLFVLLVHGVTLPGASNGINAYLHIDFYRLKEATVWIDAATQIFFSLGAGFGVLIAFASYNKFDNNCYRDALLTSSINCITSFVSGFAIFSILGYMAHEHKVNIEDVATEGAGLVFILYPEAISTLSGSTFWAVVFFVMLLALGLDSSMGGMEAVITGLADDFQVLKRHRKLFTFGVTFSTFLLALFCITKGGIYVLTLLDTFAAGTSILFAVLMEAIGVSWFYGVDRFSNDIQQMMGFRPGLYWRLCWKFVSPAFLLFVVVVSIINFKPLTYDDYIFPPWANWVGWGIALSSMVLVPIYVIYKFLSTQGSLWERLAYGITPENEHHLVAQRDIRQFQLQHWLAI

[4] = target: Monoamine transporters; Norepinephrine & dopamine (Homo sapiens, UniProt Q01959+P23975); experiment: Selectivity of human NET over human DAT expressed in HEK293 cells; format: cell-based
[5] = target: Serotonin and norepinephrine transporters (SERT/NET) (Homo sapiens, UniProt P31645+P23975); experiment: Selectivity of human NET over human SERT expressed in HEK293 cells; format: cell-based
[6] = Drug level in Rhesus monkey plasma assessed as unmetabolized fractions at 10 mins; format: ADME, cell-free, Macaca mulatta; settings: read-out: Activity
[7] = Drug level in Rhesus monkey plasma assessed as unmetabolized fractions at 30 mins; format: ADME, cell-free, Macaca mulatta; settings: read-out: Activity
[8] = Drug level in Rhesus monkey plasma assessed as unmetabolized fractions at 3 mins; format: ADME, cell-free, Macaca mulatta; settings: read-out: Activity

Sodium-dependent serotonin transporter, sequence (P31645 whole entry): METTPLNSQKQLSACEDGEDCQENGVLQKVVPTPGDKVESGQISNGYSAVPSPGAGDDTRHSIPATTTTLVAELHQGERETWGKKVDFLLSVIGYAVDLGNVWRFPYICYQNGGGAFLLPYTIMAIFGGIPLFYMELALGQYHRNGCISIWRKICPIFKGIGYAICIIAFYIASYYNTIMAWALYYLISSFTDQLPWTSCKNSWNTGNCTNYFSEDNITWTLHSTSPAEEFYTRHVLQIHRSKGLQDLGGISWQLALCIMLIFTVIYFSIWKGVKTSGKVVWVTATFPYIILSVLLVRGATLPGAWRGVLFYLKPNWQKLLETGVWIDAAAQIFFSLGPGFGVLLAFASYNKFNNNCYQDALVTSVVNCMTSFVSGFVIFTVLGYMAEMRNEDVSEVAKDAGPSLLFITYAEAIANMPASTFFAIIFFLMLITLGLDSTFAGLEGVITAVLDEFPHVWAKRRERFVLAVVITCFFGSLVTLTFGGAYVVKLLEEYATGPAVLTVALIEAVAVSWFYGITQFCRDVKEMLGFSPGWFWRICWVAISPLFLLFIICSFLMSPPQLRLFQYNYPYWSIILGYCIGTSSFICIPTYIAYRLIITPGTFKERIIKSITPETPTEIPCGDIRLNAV

Structure (SMILES) | pKi [1] | pKi [2] | pKi [3] | NET over DAT selectivity ratio (no unit) [4] [nM] | NET over SERT selectivity ratio [5] [nM] | remaining at 10 min [6] [%] | remaining at 0.5 h [7] [%] | remaining at 0.05 h [8] [%]
C=Cc1ccc([C@@H]2C[C@H]3CC[C@@H](N3)[C@H]2C(=O)OC)cc1 | 8.04 | 8.00 | 8.33 | 2.2 | 1.9 |  |  | 
Cc1ccc([C@@H]2C[C@H]3CC[C@@H](N3)[C@H]2C(=O)O[11CH3])cc1F |  |  |  |  |  | 7.5 | 1.6 | 25
COC(=O)[C@@H]1[C@H]2CC[C@H](C[C@H]1c1ccc(C)cc1)N2 | 6.87 | 7.94 | 8.31 | 2.3 | 28 |  |  | 
COC(=O)[C@@H]1[C@H]2CC[C@H](C[C@H]1c1ccc(C)c(F)c1)N2 | 7.37 | 8.19 | 8.75 | 3.6 | 24 |  |  | 
C#Cc1ccc([C@@H]2C[C@H]3CC[C@@H](N3)[C@H]2C(=O)OC)cc1 | 8.46 | 8.65 | 8.73 | 1.2 | 1.8 |  |  | 
COC(=O)[C@@H]1[C@H]2CC[C@H](C[C@H]1c1ccc(I)cc1)N2 | 8.38 | 8.65 | 8.70 | 1.1 | 2.1 |  |  | 
